Measured values taken from US8367873B2, “Phenyl-substituted bicyclooctane-1,3-dione derivatives” (Bayer Cropscience AG, priority 2008, dated 2013).

What was measured:
Assay type in all cases: in vivo
[1] = test system: Alopecurus myosuroides; test: Herbicidal pre-emergence action; details: pre-emergence method, 80 g/ha, greenhouse, visual assessment vs untreated controls
Outline: (§1)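 Test compounds, as wettable powder suspensions with 0.2% wetting agent at a water rate of 600 l/ha, were applied in different amounts to the covering soil over freshly sown seeds in sandy loam. Emergence damage was rated visually in percent against untreated plants after three weeks under greenhouse conditions.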

[2] = test system: Lolium multiflorum; test: Herbicidal pre-emergence action; details: pre-emergence method, 80 g/ha, greenhouse, visual assessment vs untreated controls
Outline: as §1

[3] = test system: Echinocloa crus-galli; test: Herbicidal pre-emergence action; details: pre-emergence method, 80 g/ha, greenhouse, visual assessment vs untreated controls
Outline: as §1

[4] = test system: Setaria viridis; test: Herbicidal pre-emergence action; details: pre-emergence method, 80 g/ha, greenhouse, visual assessment vs untreated controls
Outline: as §1

[5] = test system: Alopecurus myosuroides; test: Herbicidal post-emergence action; details: post-emergence method, 80 g/ha
Outline: (§2)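 Greenhouse plants in sandy loam sprayed at the one-leaf stage, 2-3 weeks after sowing, with WP-formulated compound at varied rates in 600 l/ha water plus 0.2% wetting agent. Damage scored visually after about three weeks as percent effect versus untreated controls (100% = dead).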

[6] = test system: Lolium multiflorum; test: Herbicidal post-emergence action; details: post-emergence method, 80 g/ha
Outline: as §2

[7] = test system: Echinocloa crus-galli; test: Herbicidal post-emergence action; details: post-emergence method, 80 g/ha
Outline: as §2

[8] = test system: Setaria viridis; test: Herbicidal post-emergence action; details: post-emergence method, 80 g/ha
Outline: as §2

[9] = test system: monocotylidonous and dicotylidonous weed and crop plants; test: Herbicidal post-emergence action (other test plants); details: post-emergence method, 80 g/ha
Outline: as §2

[10] = test system: monocotylidonous and dicotylidonous weed and crop plants; test: Herbicidal pre-emergence action (other test plants); details: pre-emergence method, 80 g/ha, greenhouse, visual assessment vs untreated controls
Outline: as §1

SMILES	herbicidal effect ALOMY [1]	herbicidal effect LOLMU [2]	herbicidal effect ECHCG [3]	herbicidal effect SETVI [4]	herbicidal effect against ALOMY (Alopecurus myosuroides) [5]	herbicidal effect against LOLMU (Lolium multiflorum) [6]	herbicidal effect against ECHCG (Echinochloa crus-galli) [7]	herbicidal effect against SETVI (Setaria viridis) [8]	herbicidal effect against AVEFA (Avena fatua) [9]	herbicidal effect AVEFA [10]
CCOC(=O)OC1=C(c2c(C)cc(C)cc2C)C(=O)C2CC3(CC12)OCCO3 (centres unmarked) [I-c-44]	50%	100%	0%	0%	40%	100%	100%	90%	80%	50%
CCc1cc(C)cc(CC)c1C1=C([O-])C2CC3(CC2C1=O)OC(C)CC(C)O3.[Na+] (centres unmarked) [I-f-2]	90%	100%	90%	60%	80%	100%	100%	90%	90%	50%
COc1cc(C)cc(C)c1C1=C([O-])C2CC3(CC2C1=O)OCCCO3.[Na+] (centres unmarked) [I-f-4]	0%	100%	90%	50%	100%	100%	100%	100%	90%	50%
COc1cc(C)cc(C)c1C1=C([O-])C2CC3(CC2C1=O)OCCCCO3.[Na+] (centres unmarked) [I-f-5]	90%	90%	70%	90%	100%	100%	100%	100%	100%	70%
COc1cc(C)cc(C)c1C1=C([O-])C2CC3(CC2C1=O)OCCO3.[Na+] (centres unmarked) [I-f-6]	60%	90%	70%	70%	100%	100%	100%	100%	80%	90%
COc1cc(C)cc(C)c1C1=C([O-])C2CC3(CC2C1=O)OCC=CCO3.[Na+] (centres unmarked) [I-f-7]	100%	100%	80%	90%	100%	100%	100%	100%	100%	70%
Cc1cc(C)c(C2=C([O-])C3CC4(CC3C2=O)OCC=CCO4)c(C)c1.[Na+] (centres unmarked) [I-f-8]	30%	100%	0%	70%	100%	100%	100%	100%	90%	40%
Cc1cc(C)c(C2=C([O-])C3CC4(CC3C2=O)OCC(C)CO4)c(C)c1.[Na+] (centres unmarked) [I-f-9]	30%	100%	60%	50%	80%	100%	80%	100%	90%	50%
Cc1cc(C)c(C2=C([O-])C3CC4(CC3C2=O)OCCO4)c(C)c1.[Na+] (centres unmarked) [I-f-11]	40%	100%	0%	20%	60%	100%	90%	80%	40%	50%
CCc1cc(C)cc(CC)c1C1=C([O-])C2CC3(CC2C1=O)OCC=CCO3.[Na+] (centres unmarked) [I-f-12]	100%	70%	100%	90%	100%	100%	100%	100%	100%	70%
CCc1cc(C)cc(CC)c1C1=C([O-])C2CC3(CC2C1=O)OCC(OC)CO3.[Na+] (centres unmarked) [I-f-13]	100%	100%	100%	90%	100%	100%	100%	100%	100%	0%
CCOC1COC2(CC3C(=O)C(c4c(CC)cc(C)cc4CC)=C([O-])C3C2)OC1.[Na+] (centres unmarked) [I-f-14]	100%	100%	100%	100%	100%	100%	100%	100%	100%	70%
CCc1cc(C)cc(CC)c1C1=C([O-])C2CC3(CC2C1=O)OCCO3.[Na+] (centres unmarked) [I-f-15]	100%	100%	100%	90%	80%	100%	100%	100%	90%	60%
CCc1cc(C)cc(CC)c1C1=C([O-])C2CC3(CC2C1=O)OCC(OCc1ccccc1)CO3.[Na+] (centres unmarked) [I-f-16]	80%	90%	60%	90%	100%	100%	100%	100%	100%	80%
CCc1cc(C)cc(CC)c1C1=C([O-])C2CC3(CC2C1=O)OCCCCO3.[Na+] (centres unmarked) [I-f-17]	80%	100%	90%	90%	100%	100%	100%	100%	100%	60%
C=C1COC2(CC3C(=O)C(c4c(CC)cc(C)cc4CC)=C([O-])C3C2)OC1.[Na+] (centres unmarked) [I-f-20]	100%	100%	100%	100%	100%	100%	100%	100%	100%	70%
C=C1CC2C(=O)C(c3c(CC)cc(C)cc3CC)=C([O-])C2C1.[Na+] (centres unmarked) [I-f-21]	90%	100%	100%	90%	80%	100%	100%	100%	80%	70%
